The structures appear in SMILES notation.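 Assay format: 96-well plates, 48-hour exposure. At the GI50, growth is halved.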 The source made the active and inactive calls. Rule as the data show it: active = GI50 up to about 1.1 µM and inactive = higher.

Holding throughout (assay): DTP human tumour cell line panel, 48 h
For experiment [1], the system named is SR.
Experiment [2] relates to NCI-H460.
Experiment [3] concerns SF-539.
The subject of experiment [4] is M14.
In experiment [5] the test system is SN12C.
The test system of experiment [6] is HCT-15.
Experiment [7] deals with SNB-75.
In experiment [8] the test system is OVCAR-8.
Experiment [9] has as its system SNB-19.
Experiment [10] concerns LOX IMVI.
For experiment [11], the system named is KM12.
For experiment [12], the system named is TK-10.
Experiment [13] deals with CAKI-1.
Experiment [14] has as its system SK-MEL-2.
Experiment [15] deals with SK-MEL-28.
For experiment [16], the system named is UO-31.
Experiment [17] has as its system RXF 393.

What is called GI50 is the concentration that inhibits growth by half. Regarding `Cc1cccc(C)c1NC(=O)CCCC(=O)C(C#N)c1ccc(Cl)cc1` (centres undefined), the GI50 in experiment [1] was > 100 µM (inactive); in [2], > 100 µM (inactive); in experiment [3], > 100 µM (inactive); in [4], > 100 µM (inactive); in [5] it was > 100 µM (inactive); in [6] it was above 100 µM. For the same compound, the GI50 in experiment [7] is 35.6 µM (inactive); in [8], > 100 µM (inactive); in experiment [9] it was > 100 µM (inactive); in experiment [10], > 100 µM (inactive); in experiment [11], > 100 µM (inactive); in [12] it was > 100 µM (inactive). The GI50 in experiment [13], in [14], in [15] and in experiment [16] was > 100 µM (inactive) in each case.

For `COc1ccc(/C=C/C(C(=O)O)C(=O)O)cc1`, the GI50 was 34.8 µM (inactive) in experiment [1]; > 100 µM (inactive) in [2]; > 100 µM (inactive) in experiment [3]; 75.7 µM (inactive) in [4]; 51.3 µM (inactive) in experiment [5]; 45.6 µM in experiment [6]. Also, the GI50 in experiment [8] is > 100 µM (inactive); in [9] it was 70.5 µM (inactive); in experiment [10] it was 16.1 µM (inactive); in experiment [11], 50.7 µM (inactive); in experiment [12], > 100 µM (inactive); in experiment [13], > 100 µM (inactive). The GI50 was > 100 µM (inactive) in [14], 22.5 µM (inactive) in [15] and 64.3 µM (inactive) in experiment [16].

For the compound `CSC(=N)N1N=C2c3ccccc3CC[C@@H]2[C@@H]1c1ccccc1`, the GI50 in experiment [1] is 10.4 µM (inactive); in [2], 13.2 µM (inactive); in experiment [3], 13.9 µM (inactive); in experiment [4], 13.2 µM (inactive); in [5], 16.4 µM (inactive); in experiment [6] it was 15.7 µM. In addition, the GI50 in experiment [8] was 15 µM (inactive); in experiment [9], 16.4 µM (inactive); in experiment [10], 14.5 µM (inactive); in experiment [11] it was 14.4 µM (inactive); in [12], 17 µM (inactive); in experiment [17] it was 13.9 µM (inactive). In addition, the GI50 in [14] is 14.6 µM (inactive); in [15], 15.6 µM (inactive); in experiment [16], 9.64 µM (inactive).

With `C[C@@H](CO)OCOCc1ccccc1`, the GI50 in experiment [2] was > 100 µM (inactive); in experiment [3], > 100 µM (inactive); in [4] it was > 100 µM (inactive); in experiment [5], > 100 µM (inactive); in experiment [6], above 100 µM; in experiment [7], > 100 µM (inactive). The GI50 in experiment [9], in experiment [10], in experiment [11], in [17], in experiment [13] and in experiment [14] was > 100 µM (inactive) each time. Further, the GI50 in experiment [15] and in [16] was > 100 µM (inactive) in each case.

As for `O=C(Nc1cccc(Cl)c1)c1cc2cc(/N=N/c3ccc(Br)cc3)ccc2oc1=O`, the GI50 in [2] was 36 µM (inactive); in experiment [3] it was 56.2 µM (inactive); in experiment [4], 22.3 µM (inactive); in experiment [5] it was 32.1 µM (inactive); in experiment [6] it was 10.2 µM; in [7], 37 µM (inactive). Further, the GI50 was 58.7 µM (inactive) in [8]; 25.1 µM (inactive) in experiment [9]; 14.4 µM (inactive) in experiment [10]; 19.2 µM (inactive) in [11]; 51.1 µM (inactive) in experiment [12]; 16.1 µM (inactive) in [17]. Also, the GI50 in experiment [13] was 23.2 µM (inactive); in [14], 12.9 µM (inactive); in [15], 47.8 µM (inactive); in experiment [16], 14 µM (inactive).

For `Cc1cc2c(=O)cc(-c3ccncc3)oc2c(C(=O)O)c1C`, the GI50 in experiment [1] was > 100 µM (inactive); in experiment [2], > 100 µM (inactive); in experiment [3], > 100 µM (inactive); in [5], > 100 µM (inactive); in experiment [6], above 100 µM; in [7], > 100 µM (inactive). Further, the GI50 in experiment [8], in [9], in experiment [10], in experiment [12], in [17] and in experiment [14] was > 100 µM (inactive) throughout. Besides, the GI50 in experiment [15] and in experiment [16] was > 100 µM (inactive) in each case.

In the case of `C#C[C@]1(O)CCCC2=CC(=O)CC[C@@]21C`, the GI50 was > 100 µM (inactive) in experiment [1]; > 100 µM (inactive) in experiment [2]; > 100 µM (inactive) in experiment [3]; > 100 µM (inactive) in experiment [4]; > 100 µM (inactive) in [5]; above 100 µM in [6]. The GI50 in experiment [8], in experiment [9], in experiment [11], in [12], in experiment [17] and in experiment [14] was > 100 µM (inactive) throughout. Further, the GI50 in experiment [15] and in [16] was > 100 µM (inactive) in each case.

For `CCOC(=O)/C(=C/c1ccccc1Br)P(=O)(OCC)OCC`, the GI50 in [2] was 2.87 µM (inactive); in experiment [3] it was 2.4 µM (inactive); in experiment [4], 1.54 µM (inactive); in [5], 2.06 µM (inactive); in experiment [6], 1.78 µM; in experiment [7], 1.48 µM (inactive). Further, the GI50 is 1.91 µM (inactive) in experiment [8]; 2.49 µM (inactive) in experiment [9]; 1.39 µM (inactive) in [10]; 1.87 µM (inactive) in experiment [11]; 3.23 µM (inactive) in experiment [12]; 1.17 µM (inactive) in [17]. The GI50 in experiment [13] is 2.09 µM (inactive); in experiment [14] it was 1.84 µM (inactive); in experiment [15], 2.03 µM (inactive).

Consider `CC(=O)O[C@@H]1CC[C@@]2(C)C(=O)C34C[C@@]5(C)C([C@@H](C)CCCC(C)C)CCC5(C)[C@](O)(O3)C(=O)[C@H]4C2C1(C)C` (some centres undefined), for which the GI50 in experiment [1] is 16 µM (inactive); in experiment [2] it was 6.04 µM (inactive); in experiment [3], 19.3 µM (inactive); in [4], 13.1 µM (inactive); in [5] it was 13.2 µM (inactive); in experiment [6], 13.5 µM. Besides, the GI50 in experiment [7] was 15.7 µM (inactive); in [8], 16.5 µM (inactive); in experiment [9] it was 16.6 µM (inactive); in experiment [10], 15.6 µM (inactive); in experiment [11], 11.3 µM (inactive); in [12] it was 16.6 µM (inactive). Further, the GI50 in [13] was 14.7 µM (inactive); in experiment [14], 19.8 µM (inactive); in [15], 18.9 µM (inactive); in experiment [16], 13.3 µM (inactive).

For `NNC(=O)N/N=C1\CNC(=O)C(=O)C1c1nc2ccccc2s1` (centres undefined), the GI50 was > 100 µM (inactive) in [2]; > 100 µM (inactive) in experiment [3]; > 100 µM (inactive) in experiment [4]; > 100 µM (inactive) in experiment [5]; above 100 µM in [6]; > 100 µM (inactive) in experiment [7]. Moreover, the GI50 in experiment [8], in experiment [9], in experiment [10], in experiment [11], in experiment [12] and in experiment [17] was > 100 µM (inactive) in each case. The GI50 in [13], in experiment [14], in [15] and in experiment [16] was > 100 µM (inactive) each time.

In the case of `OC1CN(OC/C=C/c2ccccc2)CC(O)C1O` (centres undefined), the GI50 in [2] is 63.4 µM (inactive); in [3], > 100 µM (inactive); in experiment [4], > 100 µM (inactive); in [5] it was > 100 µM (inactive); in experiment [6], above 100 µM; in experiment [7], > 100 µM (inactive). The GI50 in [8] was > 100 µM (inactive); in experiment [9], > 100 µM (inactive); in experiment [10], 46.1 µM (inactive); in experiment [11], 72.3 µM (inactive); in experiment [12] it was > 100 µM (inactive); in [17] it was > 100 µM (inactive). In addition, the GI50 in experiment [13], in experiment [14], in experiment [15] and in [16] was > 100 µM (inactive) each time.

Regarding `NC(CCSCCF)C(=O)O` (centres undefined), the GI50 in experiment [1] was > 100 µM (inactive); in experiment [2], > 100 µM (inactive); in experiment [3], > 100 µM (inactive); in experiment [4] it was > 100 µM (inactive); in [5], > 100 µM (inactive); in [6], above 100 µM. The GI50 in experiment [9], in [10], in experiment [11], in experiment [12], in experiment [13] and in [14] was > 100 µM (inactive) throughout. In addition, the GI50 in [15] and in experiment [16] was > 100 µM (inactive) throughout.

Turning to `Oc1cccc2c1NC1=C(CCC/C1=C\c1ccccc1)C2`, the GI50 was 50.1 µM (inactive) in [1]; 57.1 µM (inactive) in experiment [2]; 20.6 µM (inactive) in experiment [3]; 33.5 µM (inactive) in experiment [4]; > 10 µM (inactive) in experiment [5]; 43.4 µM in [6]. For the same compound, the GI50 in experiment [8] is > 100 µM (inactive); in [9], > 100 µM (inactive); in [10], 73.3 µM (inactive); in experiment [11] it was > 100 µM (inactive); in [12] it was > 100 µM (inactive); in experiment [15], > 100 µM (inactive). In addition, the GI50 in [16] is 51.2 µM (inactive).
